Test results: patent US11571423B2, “Small molecule modulators of human sting” (Curadev Pharma Limited, priority 2017, dated 2023)
Structures can show the parent of a compound that is named as a salt. Where two headings read alike, the source gives them in different places.

Columns and labels:
hSTING(R232) = hSTING(R232) (Homo sapiens, UniProt Q86WV6, H232R); experiment: Luciferase reporter assay in HEK293T-hSTING-Luciferase cells, R232 (wild type) human STING; format: cell-based; conditions: 20 hr stimulation, read-out: R232 human activity (EC50 range)
Outline: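 After 20 hr compound stimulation of 5×10^5 cells, secreted luciferase in the supernatant was measured by luminescence; values are fold-induction over baseline and EC50. The line is a clonal HEK293T stably carrying a STING plasmid (pUNO-1) and a luciferase reporter under five tandem ISREs fused to an ISG54 promoter.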

[1] = target: cynomolgus monkey STING protein (Macaca fascicularis, UniProt A0A2R3XZA6); experiment: Luciferase reporter assay, cynomolgus monkey STING overexpressed in HEK293T cells; format: cell-based
Experimental: 5×10^5 clonally selected HEK293T-hSTING-Luciferase cells were seeded in 384-well plates in growth medium and stimulated with novel compounds. After 20 hr of stimulation supernatant were removed and secretary reporter gene activity were measured using the Quanti-Luc detection system (Invivogen) on a Spectramax i3X luminometer.
In the tables below, EC50 value ranges for exemplary compounds are given.
Selected compounds were further tested against cynomolgus monkey STING protein overexpressed in HEK293T cells.

[2] = cynomolgus monkey STING overexpressed in HEK293T cells, read-out: Cynomolgus monkey STING activity (EC50 range)

Chain of cynomolgus monkey STING protein (A0A2R3XZA6 entry or part of it): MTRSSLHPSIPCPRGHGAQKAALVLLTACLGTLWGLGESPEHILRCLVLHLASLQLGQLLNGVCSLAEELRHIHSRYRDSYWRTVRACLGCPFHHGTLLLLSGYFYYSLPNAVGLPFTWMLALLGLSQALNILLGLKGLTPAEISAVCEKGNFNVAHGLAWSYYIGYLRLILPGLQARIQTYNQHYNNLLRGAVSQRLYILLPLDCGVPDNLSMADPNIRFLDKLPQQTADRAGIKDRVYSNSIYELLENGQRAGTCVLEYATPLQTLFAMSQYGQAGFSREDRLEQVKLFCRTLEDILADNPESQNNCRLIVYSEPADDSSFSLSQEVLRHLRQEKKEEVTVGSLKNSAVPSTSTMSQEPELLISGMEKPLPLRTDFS
Chain of hSTING(R232) (Q86WV6 whole entry H232R, the tested form may be a part): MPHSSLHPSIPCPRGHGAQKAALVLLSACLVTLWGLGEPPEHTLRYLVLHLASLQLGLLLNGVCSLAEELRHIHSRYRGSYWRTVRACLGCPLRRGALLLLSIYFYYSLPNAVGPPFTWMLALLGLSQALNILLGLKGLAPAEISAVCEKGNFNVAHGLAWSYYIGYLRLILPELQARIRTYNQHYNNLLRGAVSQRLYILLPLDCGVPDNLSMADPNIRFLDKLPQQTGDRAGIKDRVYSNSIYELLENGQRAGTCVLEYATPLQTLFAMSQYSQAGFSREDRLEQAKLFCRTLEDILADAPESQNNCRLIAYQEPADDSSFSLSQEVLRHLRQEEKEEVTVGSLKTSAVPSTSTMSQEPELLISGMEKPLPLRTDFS

COc1cc(F)c(CN2C(=O)N(C)[C@@H](C)c3ccc(C(=O)NCc4c(F)cc(F)cc4F)cc32)c(F)c1 [Example 79, (S)-1-(2,6-Difluoro-4-methoxybenzyl)-3,4-dimethyl-2-oxo-N-(2,4,6-trifluorobenzyl)-1,2,3,4-tetrahydroquinazoline-7-carboxamide]
EC50 (hSTING(R232)): < 1000 nM
EC50 [1, 2]: < 1000 nM

C[C@H]1c2ccc(C(=O)NCc3c(F)cc(F)cc3F)cc2N(Cc2c(F)cc(OCCCOP(=O)(O)O)cc2F)C(=O)N1C [Example 82, (S)-3-(4-((3,4-dimethyl-2-oxo-7-((2,4,6-trifluorobenzyl)carbamoyl)-3,4-dihydroquinazolin-1(2H)-yl)methyl)-3,5-difluorophenoxy)propyl dihydrogen phosphate]
EC50 (hSTING(R232)): < 1000 nM
EC50 [1, 2]: < 1000 nM

C[C@H]1c2ccc(C(=O)NCc3c(F)cc(F)cc3F)cc2N(Cc2c(F)cc(OCOP(=O)(O)O)cc2F)C(=O)N1C [Example 83, (S)-(4-((3,4-dimethyl-2-oxo-7-((2,4,6-trifluorobenzyl)carbamoyl)-3,4-dihydroquinazolin-1(2H)-yl)methyl)-3,5-difluorophenoxy)methyl dihydrogen phosphate]
EC50 (hSTING(R232)): < 1000 nM
EC50 [1, 2]: < 1000 nM

C[C@H]1c2ccc(C(=O)NCc3c(F)cc(F)cc3F)cc2N(Cc2c(F)cc(OP(=O)(O)O)cc2F)C(=O)N1C [Example 84, (S)-4-((3,4-Dimethyl-2-oxo-7-((2,4,6-trifluorobenzyl)carbamoyl)-3,4-dihydroquinazolin-1(2H)-yl)methyl)-3,5-difluorophenyl dihydrogen phosphate]
EC50 (hSTING(R232)): < 1000 nM
EC50 [1, 2]: < 1000 nM

C[C@H]1c2ccc(C(=O)NCc3c(F)cc(F)cc3F)cc2N(Cc2c(F)cc(OC(=O)N(C)CCC(=O)OCc3ccccc3)cc2F)C(=O)N1C [Example 86, (S)-Benzyl-3-(((4-((3,4-dimethyl-2-oxo-7-((2,4,6-trifluorobenzyl)carbamoyl)-3,4-dihydroquinazolin-1(2H)-yl)methyl)-3,5-difluorophenoxy)carbonyl)(methyl)amino)propanoate]
EC50 (hSTING(R232)): 1000 to 10000 nM
EC50 [1]: 1000 to 10000 nM

C[C@H]1c2ccc(C(=O)NCc3c(F)cc(F)cc3F)cc2N(Cc2c(F)ccc(OP(=O)(O)O)c2Cl)C(=O)N1C [Example 89, (S)-2-Chloro-3-((3,4-dimethyl-2-oxo-7-((2,4,6-trifluorobenzyl)carbamoyl)-3,4-dihydroquinazolin-1(2H)-yl)methyl-4-fluorophenyldihydrogen phosphate]
EC50 (hSTING(R232)): < 1000 nM
EC50 [1, 2]: < 1000 nM

C[C@H]1c2ccc(C(=O)NCc3c(F)cc(F)cc3F)cc2N(Cc2c(F)ccc(OCOP(=O)(O)O)c2Cl)C(=O)N1C [Example 90, (S)-(2-Chloro-3-((3,4-dimethyl-2-oxo-7-((2,4,6-trifluorobenzyl)carbamoyl)-3,4-dihydroquinazolin-1(2H)-yl)methyl)-4-fluorophenoxy)methyl dihydrogen phosphate]
EC50 (hSTING(R232)): < 1000 nM
EC50 [1, 2]: < 1000 nM

C[C@H]1c2ccc(C(=O)NCc3c(F)cc(F)cc3F)cc2N(Cc2c(F)cc(F)cc2OCCCOP(=O)(O)O)C(=O)N1C [Example 94, (S)-3-(2-((3,4-dimethyl-2-oxo-7-((2,4,6-trifluorobenzyl)carbamoyl)-3,4-dihydroquinazolin-1(2H)-yl)methyl)-3,5-difluorophenoxy)propyl dihydrogen phosphate]
EC50 (hSTING(R232)): < 1000 nM
EC50 [1, 2]: > 10000 nM

C[C@H]1c2ccc(C(=O)NCc3c(F)cc(F)cc3F)cc2N(Cc2c(F)ccc(OCCOP(=O)(O)O)c2Cl)C(=O)N1C [Example 95, (S)-2-(2-chloro-3-((3,4-dimethyl-2-oxo-7-((2,4,6-trifluorobenzyl)carbamoyl)-3,4-dihydroquinazolin-1(2H)-yl)methyl)-4-fluorophenoxy)ethyl dihydrogen phosphate]
EC50 (hSTING(R232)): < 1000 nM
EC50 [1, 2]: > 10000 nM

C[C@H]1c2ccc(C(=O)NCc3c(F)cc(F)cc3F)cc2N(Cc2c(F)ccc(OCCCOP(=O)(O)O)c2Cl)C(=O)N1C [Example 96, (S)-3-(2-chloro-3-((3,4-dimethyl-2-oxo-7-((2,4,6-trifluorobenzyl)carbamoyl)-3,4-dihydroquinazolin-1(2H)-yl)methyl)-4-fluorophenoxy)propyl dihydrogen phosphate]
EC50 (hSTING(R232)): < 1000 nM
EC50 [1, 2]: > 10000 nM

C[C@H]1c2ccc(C(=O)NCc3cc(F)cc(OCCO)c3)cc2N(Cc2c(F)cccc2Cl)C(=O)N1C [Example 266, (S)-1-(2-chloro-6-fluorobenzyl)-N-(3-fluoro-5-(2-hydroxyethoxy)benzyl)-3,4-dimethyl-2-oxo-1,2,3,4-tetrahydroquinazoline-7-carboxamide]
EC50 (hSTING(R232)): > 10000 nM

C[C@H]1c2ccc(C(=O)NCc3cccc(O)c3F)cc2N(Cc2c(F)cccc2Cl)C(=O)N1C [Example 267, (S)-1-(2-chloro-6-fluorobenzyl)-N-(2-fluoro-3-hydroxybenzyl)-3,4-dimethyl-2-oxo-1,2,3,4-tetrahydroquinazoline-7-carboxamide]
EC50 (hSTING(R232)): < 1000 nM

C[C@H]1c2ccc(C(=O)NCc3c(F)cc(F)cc3F)cc2N(Cc2c(F)cccc2NC(=O)CN)C(=O)N1C [Example 272, (S)-1-(2-(2-aminoacetamido)-6-fluorobenzyl)-3,4-dimethyl-2-oxo-N-(2,4,6-trifluorobenzyl)-1,2,3,4-tetrahydroquinazoline-7-carboxamide dihydrochloride]
EC50 (hSTING(R232)): 1000 to 10000 nM

C[C@H]1c2ccc(C(=O)NCc3c(F)cc(F)cc3F)cc2N(Cc2cc(O)c(O)cc2F)C(=O)N1C [Example 274, (S)-1-(2-fluoro-4,5-dihydroxybenzyl)-3,4-dimethyl-2-oxo-N-(2,4,6-trifluorobenzyl)-1,2,3,4-tetrahydroquinazoline-7-carboxamide]
EC50 (hSTING(R232)): 1000 to 10000 nM

C[C@H]1c2ccc(C(=O)NCc3cccc(OCCO)c3F)cc2N(Cc2c(F)cccc2Cl)C(=O)N1C [Example 276, (S)-1-(2-chloro-6-fluorobenzyl)-N-(2-fluoro-3-(2-hydroxyethoxy)benzyl)-3,4-dimethyl-2-oxo-1,2,3,4-tetrahydroquinazoline-7-carboxamide]
EC50 (hSTING(R232)): > 10000 nM

C[C@H]1c2ccc(C(=O)NCc3c(F)cc(F)cc3F)cc2N(Cc2c(F)cc(OCC(=O)O)cc2F)C(=O)N1C [Example 277, (S)-2-(4-((3,4-dimethyl-2-oxo-7-((2,4,6-trifluorobenzyl)carbamoyl)-3,4-dihydroquinazolin-1(2H)-yl)methyl)-3,5-difluorophenoxy)acetic acid]
EC50 (hSTING(R232)): > 10000 nM

C[C@H]1c2ccc(C(=O)NCc3c(F)cc(F)cc3F)cc2N(Cc2c(F)cccc2NCCCO)C(=O)N1C [Example 278, (S)-1-(2-fluoro-6-((3-hydroxypropyl)amino)benzyl)-3,4-dimethyl-2-oxo-N-(2,4,6-trifluorobenzyl)-1,2,3,4-tetrahydroquinazoline-7-carboxamide]
EC50 (hSTING(R232)): < 1000 nM

COc1cccc(CN2C(=O)N(C)[C@@H](C)c3ccc(C(=O)NCc4c(F)cc(F)cc4F)cc32)c1F [Example 279, (S)-1-(2-fluoro-3-methoxybenzyl)-3,4-dimethyl-2-oxo-N-(2,4,6-trifluorobenzyl)-1,2,3,4-tetrahydroquinazoline-7-carboxamide]
EC50 (hSTING(R232)): < 1000 nM

C[C@H]1c2ccc(C(=O)NCc3c(F)cc(F)cc3F)cc2N(Cc2c(F)cc(OCCCN)cc2F)C(=O)N1C [Example 280, (S)-1-(4-(3-aminopropoxy)-2,6-difluorobenzyl)-3,4-dimethyl-2-oxo-N-(2,4,6-trifluorobenzyl)-1,2,3,4-tetrahydroquinazoline-7-carboxamide]
EC50 (hSTING(R232)): < 1000 nM

C[C@H]1c2ccc(C(=O)NCc3ccc(F)cc3OCCO)cc2N(Cc2c(F)cccc2Cl)C(=O)N1C [Example 284, (S)-1-(2-chloro-6-fluorobenzyl)-N-(4-fluoro-2-(2-hydroxyethoxy)benzyl)-3,4-dimethyl-2-oxo-1,2,3,4-tetrahydroquinazoline-7-carboxamide]
EC50 (hSTING(R232)): > 10000 nM

C[C@H]1c2ccc(C(=O)NCc3c(F)cc(F)cc3F)cc2N(Cc2c(Cl)c[nH]c(=O)c2F)C(=O)N1C [Example 287, (S)-1-((5-chloro-3-fluoro-2-oxo-1,2-dihydropyridin-4-yl)methyl)-3,4-dimethyl-2-oxo-N-(2,4,6-trifluorobenzyl)-1,2,3,4-tetrahydroquinazoline-7-carboxamide]
EC50 (hSTING(R232)): > 10000 nM

C[C@H]1c2ccc(C(=O)NCc3c(F)cc(F)cc3F)cc2N(Cc2c(Cl)cn(C)c(=O)c2F)C(=O)N1C [Example 288, (S)-1-((5-chloro-3-fluoro-1-methyl-2-oxo-1,2-dihydropyridin-4-yl)methyl)3,4-dimethyl-2-oxo-N-(2,4,6-trifluorobenzyl)-1,2,3,4-tetrahydroquinazoline-7-carboxamide]
EC50 (hSTING(R232)): 1000 to 10000 nM

C[C@H]1c2ccc(C(=O)NCc3c(F)cc(F)cc3F)cc2N(Cc2c(F)cc(OCCN)cc2F)C(=O)N1C [Example 292, (S)-1-(4-(2-aminoethoxy)-2,6-difluorobenzyl)-3,4-dimethyl-2-oxo-N-(2,4,6-trifluorobenzyl)-1,2,3,4-tetrahydroquinazoline-7-carboxamide hydrochloride]
EC50 (hSTING(R232)): < 1000 nM

C[C@H]1c2ccc(C(=O)NCc3c(F)cc(F)cc3F)cc2N(Cc2c(Cl)cn(CCO)c(=O)c2F)C(=O)N1C [Example 297, (S)-1-((5-chloro-3-fluoro-1-(2-hydroxyethyl)-2-oxo-1,2-dihydropyridin-4-yl)methyl)-3,4-dimethyl-2-oxo-N-(2,4,6-trifluorobenzyl)-1,2,3,4-tetrahydroquinazoline-7-carboxamide]
EC50 (hSTING(R232)): > 10000 nM
